≈ marks a conversion by molar mass, not a printed value.
Experiments:
Assay in all cases: In vitro antibacterial activity, two-fold agar-plate dilution method
Format in all cases: cell-based
[1] = system: Esherichia coli 327; conditions: HI-agar, 37° C., 20 hours
Protocol: (§1) In vitro antibacterial activity was determined by the two-fold agar-plate dilution method as described below. One loopful of an overnight culture of each test strain in Trypticase-soy broth (approximately 10^6 viable cells per ml.) was streaked on heat infusion agar (HI-agar) containing graded concentrations of antibiotics, and the minimal inhibitory concentration (MIC) was expressed in terms of μg./ml. after incubation at 37° C. for 20 hours.

[2] = system: Proteus mirabilis 525; conditions: HI-agar, 37° C., 20 hours
Protocol: as §1

[3] = system: Proteus vulgaris LAM-1025; conditions: LAM1025, HI-agar, 37° C., 20 hours
Protocol: as §1

[4] = system: Pseudmonas aeruginose NCTC-10490; conditions: HI-agar, 37° C., 20 hours
Protocol: as §1

[5] = system: Staphylococcus aureus 209-P JC-1; conditions: HI-agar, 37° C., 20 hours
Protocol: as §1

Row | Structure (SMILES) | MIC [1] | MIC [2] | MIC [3] | MIC [4] | MIC [5]
1 | CO/N=C(\C(=O)NC1C(=O)N2C(C(=O)O)=C(COC(C)=O)CSC12)C1=CSCCO1 (centres unmarked) [compound 1, 7-[2-(2,3-dihydro-1,4-oxathiin-6-yl)-2-methoxyiminoacetamido]cephalosporanic acid] | 0.78 µg/mL (≈ 1.7 µM) | 0.78 µg/mL (≈ 1.7 µM) | 12.5 µg/mL (≈ 27.3 µM) | 25 µg/mL (≈ 54.6 µM) | 3.13 µg/mL (≈ 6.84 µM)
2 | CON=C(C(=O)NC1C(=O)N2C(C(=O)O)=C(CSc3nnnn3C)CS[C@H]12)C1=CSCCO1 (some centres unmarked) [compound 2, 7-[2-(2,3-dihydro-1,4-oxathiin-6-yl)-2-methoxyiminoacetamido]-3-(1-methyl-1H-tetrazol-5-yl)thiomethyl-3-cephem-4-carboxylic acid] | 0.2 µg/mL (≈ 0.389 µM) | 0.78 µg/mL (≈ 1.52 µM) | 25 µg/mL (≈ 48.7 µM) | 12.5 µg/mL (≈ 24.3 µM) | 3.13 µg/mL (≈ 6.09 µM)
3 | CON=C(C(=O)NC1C(=O)N2C(C(=O)O)=C(COC(N)=O)CS[C@H]12)C1=CSCCO1 (some centres unmarked) [compound 3, 7-[2-(2,3-dihydro-1,4-oxathiin-6-yl)-2-methoxyiminoacetamido]-3-carbamoyloxymethyl-3-cephem-4-carboxylic acid] | 0.78 µg/mL (≈ 1.7 µM) | 0.78 µg/mL (≈ 1.7 µM) | 100 µg/mL (≈ 218 µM) | 50 µg/mL (≈ 109 µM) | 6.25 µg/mL (≈ 13.6 µM)

Further lines, results first:

Row | MIC [1] | MIC [2] | MIC [3] | MIC [4] | MIC [5] | Structure (SMILES)
4 | 0.78 µg/mL (≈ 1.47 µM) | 3.13 µg/mL (≈ 5.89 µM) | 6.25 µg/mL (≈ 11.8 µM) | 50 µg/mL (≈ 94 µM) | 0.39 µg/mL (≈ 0.734 µM) | CON=C(C(=O)NC1C(=O)N2C(C(=O)O)=C(CSc3nncs3)CS[C@H]12)C1=CSCCS1 (some centres unmarked) [compound 4, 7-[2-(2,3-dihydro-1,4-dithiin-5-yl)2-methoxyiminoacetamido]-3-(1,3,4-thiadiazol-2-yl)thiomethyl-3-cephem-4-carboxylic acid]
5 | – | – | 3.13 µg/mL (≈ 7.8 µM) | 400 µg/mL (≈ 996 µM) | 6.25 µg/mL (≈ 15.6 µM) | CON=C(C(=O)NC1C(=O)N2C(C(=O)O)=CCS[C@H]12)C1=CSCCS1 (some centres unmarked) [compound 5, 7-[2-(2,3-dihydro-1,4-dithiin-5-yl)-2-methoxyiminoacetamido]-3-cephem-4-carboxylic acid]

Source: patent publication US4242510A, “Cephalosporin compounds and processes for the preparation thereof” (Fujisawa Pharmaceutical Co., Ltd., priority 1976, dated 1980)
